Laboratory results: publication PMC12406192, “Sustainable Joullié–Ugi and Continuous Flow Implementation Led to Novel Captopril-Inspired Broad-Spectrum Metallo-β-Lactamase Inhibitors” (Journal of Medicinal Chemistry, 2025)
Converted amounts (≈) assume the structure as drawn. Marks after values point to notes of the source that are not given here.

Experiments:
[1] = Chemical stability of the compounds; type: physicochemical
[2] = biological target: T1, NDM-1 (Klebsiella pneumoniae, UniProt C7C422); experiment: Kinetic fluorescence-based in vitro assay with fluorocillin substrate (IC50); type: biochemical; conditions: 30 min preincubation
T1 construct: made in house; host or cells: E. coli
T1 sequence (C7C422 29-270 limits assumed): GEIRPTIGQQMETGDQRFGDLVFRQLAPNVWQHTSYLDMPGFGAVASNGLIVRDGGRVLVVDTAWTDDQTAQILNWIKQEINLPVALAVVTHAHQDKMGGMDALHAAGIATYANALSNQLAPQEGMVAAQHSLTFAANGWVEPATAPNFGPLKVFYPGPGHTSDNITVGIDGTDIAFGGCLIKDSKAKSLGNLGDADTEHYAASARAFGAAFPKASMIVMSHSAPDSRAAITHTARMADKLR
Protocol: (§1) IC50 values were determined in a kinetic fluorescence-based in vitro assay as described previously. All compounds were preincubated with the recombinant protein for 30 min before addition of the fluorogenic substrate fluorocillin. , The inhibitory activity was also determined (expressed as the percentage of inhibition in the presence of 50 μM compound) using a spectrophotometric assay in which the hydrolysis of imipenem (the reporter substrate) was monitored (see Section for details).
(§2) The inhibitory activity of the compounds was determined using enzyme assays with recombinant NDM-1, VIM-1, VIM-2, IMP-1, and IMP-7. These enzymes were produced in E. coli and purified as previously described. , The fluorogenic substrate fluorocillin was synthesized according to the procedure described by Rukavishnikov et al. The assays were performed in 96-well format using black polystyrene plates (Corning, Corning, NY) at room temperature, and the measurements were carried out on the Tecan spectrophotometer Infinite F200 PRO (Tecan, Männedorf, Switzerland). The protein stock solutions were diluted in assay buffer (HEPES 50 mM, pH 7.5 containing 0.01%Triton X-100, buffer HX) to reach final concentrations of VIM-1–4 nM, IMP-7–0.1 nM; NDM-1–3 nM. Subsequently, 89 μL of the protein solution was mixed with 1 μL of the inhibitor diluted in DMSO (final DMSO concentration 1% at final assay volume of 100 μL) and incubated for 30 min. […] Negative controls were measured in the absence of enzyme (89 μL of assay buffer), whereas the positive controls were measured in the presence of enzyme and in the absence of inhibitors (1 μL of DMSO). Each measurement was performed in triplicate in three independent experiments. IC50 values were calculated using data obtained from measurements with at least eight different inhibitor concentrations, applying a sigmoidal dose–response (variable slope with four parameters) equation using GraphPad Prism 5 (GraphPad Software, La Jolla, CA) software. […] All assays were performed in at least in triplicate.

[3] = tested on: P. aeruginosa T2325 (bla IMP‑1 +); experiment: Imipenem MIC, broth microdilution, with fixed concentration of compound; type: cell-based; conditions: for imipenem MIC, P. aeruginosa T2325 (bla IMP‑1 +): compound at 128 μg/mL, median of three experiments
Protocol: (§3) In vitro antimicrobial susceptibility testing was performed according to established standards. […] The strains used in the study were described elsewhere.

[4] = tested on: K. pneumoniae T2216 (bla VIM‑1 +); experiment: as above; type: cell-based; conditions: for imipenem MIC, K. pneumoniae T2216 (bla VIM‑1 +): compound at 128 μg/mL, median of three experiments
Protocol: as §3

[5] = tested on: K. pneumoniae T2301 (bla NDM‑1 +); experiment: as above; type: cell-based; conditions: for imipenem MIC, K. pneumoniae T2301 (bla NDM‑1 +): compound at 128 μg/mL, median of three experiments
Protocol: (§4) In vitro antimicrobial susceptibility testing was performed according to established standards. […]. The strains used in the study were described elsewhere.

[6] = biological target: T2, VIM-1 (Pseudomonas aeruginosa, UniProt A0A0F7KYQ8); experiment: Kinetic fluorescence-based in vitro assay with fluorocillin substrate (IC50); type: biochemical
T2 construct: made in house; host or cells: E. coli
Protocol: as §1, §2

[7] = biological target: IMP-7 (Pseudomonas aeruginosa, UniProt Q93AU3); experiment: as above; type: biochemical; conditions: 30 min preincubation
Chain of IMP-7 (Q93AU3 entry or part of it): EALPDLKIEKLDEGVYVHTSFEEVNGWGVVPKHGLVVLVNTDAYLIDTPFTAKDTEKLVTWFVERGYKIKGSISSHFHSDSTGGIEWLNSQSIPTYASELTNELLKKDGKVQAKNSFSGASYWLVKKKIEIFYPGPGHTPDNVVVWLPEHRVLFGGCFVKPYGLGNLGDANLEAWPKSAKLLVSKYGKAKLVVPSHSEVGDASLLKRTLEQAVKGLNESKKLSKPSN
Protocol: as §1, §2

[8] = tested on: K. pneumoniae 7023 (bla VIM‑1 +); experiment: Imipenem MIC, broth microdilution, with fixed concentration of compound; type: cell-based; conditions: for imipenem MIC, K. pneumoniae 7023 (bla VIM‑1 +): compound at 32 μg/mL, median of three experiments
Protocol: as §3

[9] = tested on: A. baumannii AC-54/97 (bla IMP‑2 +); experiment: as above; type: cell-based; conditions: for imipenem MIC, A. baumannii AC-54/97 (bla IMP‑2 +): compound at 32 μg/mL, median of three experiments
Protocol: as §3

[10] = tested on: K. pneumoniae VA-416/02 (bla VIM‑4 +); experiment: as above; type: cell-based; conditions: for imipenem MIC, K. pneumoniae VA-416/02 (bla VIM‑4 +): compound at 32 μg/mL, median of three experiments
Protocol: as §3

[11] = tested on: S. marcescens SI-1591 (bla VIM‑2 +); experiment: microbe, parasite or virus in culture; type: cell-based; conditions: for imipenem MIC, S. marcescens SI-1591 (bla VIM‑2 +): compound at 32 μg/mL, median of three experiments
Protocol: as §3

[12] = tested on: E. coli SI-M001 (bla NDM‑1 +); experiment: Imipenem MIC, broth microdilution, with fixed concentration of compound; type: cell-based; conditions: for imipenem MIC, E. coli SI-M001 (bla NDM‑1 +): compound at 32 μg/mL, median of three experiments
Protocol: as §4

[13] = tested on: E. coli SI–N003 (bla NDM‑7 +); type: cell-based; conditions: compound at 32 μg/mL; median of three experiments
Protocol: as §3

[14] = tested on: E. coli SI-G001 (bla NDM‑4 +); type: cell-based; conditions: compound at 32 μg/mL; median of three experiments
Protocol: as §3

[15] = biological target: T3, human angiotensin-converting enzyme 1 (ACE-1) (Homo sapiens, UniProt P12821); experiment: ACE Activity Assay Kit, fluorogenic substrate; type: biochemical; conditions: 50 μM inhibitor
T3 construct: purchased Sigma-Aldrich CS0002
T3 sequence (P12821 30-1306): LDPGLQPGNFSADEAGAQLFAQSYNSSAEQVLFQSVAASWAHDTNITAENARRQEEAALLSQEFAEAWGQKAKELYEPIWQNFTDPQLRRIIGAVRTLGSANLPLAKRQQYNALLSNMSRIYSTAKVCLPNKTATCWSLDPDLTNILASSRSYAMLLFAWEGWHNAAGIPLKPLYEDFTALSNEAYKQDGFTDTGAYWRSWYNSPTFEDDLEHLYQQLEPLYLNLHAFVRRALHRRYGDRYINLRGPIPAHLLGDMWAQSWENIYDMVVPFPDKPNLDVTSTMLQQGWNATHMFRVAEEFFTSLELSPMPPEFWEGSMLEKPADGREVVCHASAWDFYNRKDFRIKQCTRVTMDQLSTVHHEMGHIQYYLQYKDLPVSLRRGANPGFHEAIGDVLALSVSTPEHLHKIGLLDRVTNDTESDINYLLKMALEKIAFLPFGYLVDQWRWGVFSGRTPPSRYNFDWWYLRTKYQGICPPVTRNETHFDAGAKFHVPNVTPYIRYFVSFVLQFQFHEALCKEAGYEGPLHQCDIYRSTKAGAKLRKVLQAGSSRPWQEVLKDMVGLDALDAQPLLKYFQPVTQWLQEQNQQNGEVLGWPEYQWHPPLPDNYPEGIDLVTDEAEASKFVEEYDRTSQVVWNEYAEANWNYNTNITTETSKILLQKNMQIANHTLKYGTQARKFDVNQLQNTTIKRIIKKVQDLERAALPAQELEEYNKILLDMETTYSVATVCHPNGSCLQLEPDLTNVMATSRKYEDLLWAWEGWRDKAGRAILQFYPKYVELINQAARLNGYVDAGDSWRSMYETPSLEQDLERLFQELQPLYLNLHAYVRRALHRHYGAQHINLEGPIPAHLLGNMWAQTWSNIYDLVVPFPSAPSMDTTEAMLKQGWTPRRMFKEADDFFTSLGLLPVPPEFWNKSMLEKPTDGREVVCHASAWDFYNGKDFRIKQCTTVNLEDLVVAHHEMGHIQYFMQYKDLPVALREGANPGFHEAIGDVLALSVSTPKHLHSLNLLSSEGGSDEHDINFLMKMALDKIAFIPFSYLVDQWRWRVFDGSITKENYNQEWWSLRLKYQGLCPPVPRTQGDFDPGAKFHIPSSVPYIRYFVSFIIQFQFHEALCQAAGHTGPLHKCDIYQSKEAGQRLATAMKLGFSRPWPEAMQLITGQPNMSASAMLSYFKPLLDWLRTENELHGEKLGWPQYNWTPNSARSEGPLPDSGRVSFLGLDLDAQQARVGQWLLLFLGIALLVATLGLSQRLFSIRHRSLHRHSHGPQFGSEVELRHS
Protocol: To assess the selectivity of the compounds, their inhibitory activity on human angiotensin-converting enzyme 1 (ACE-1) was performed using the ACE Activity Assay Kit (Sigma-Aldrich cat. No. CS0002). […] Captopril (racemic mixture, D- and L-stereoisomers) was used as control in these experiments.

[16] = biological target: T1, NDM-1; experiment: Spectrophotometric direct competition assay, imipenem hydrolysis (reporter substrate); type: biochemical; conditions: for inhibition at 50 µM: read-out: percentage of inhibition NDM-1
Protocol: as §1, §2

[17] = biological target: T4, VIM-2 (Escherichia coli, UniProt Q5U7L7); experiment: biochemical; conditions: competitive model, imipenem reporter substrate; read-out: K i VIM-2
T4 construct: made in house; host or cells: E. coli

[18] = biological target: T4, VIM-2; experiment: biochemical; conditions: read-out: percentage of inhibition VIM-2
Protocol: as §1, §2

[19] = biological target: T5, IMP-1 (Serratia marcescens, UniProt P52699); experiment: biochemical; conditions: for inhibition at 50 µM: read-out: percentage of inhibition IMP-1
T5 construct: made in house; host or cells: E. coli
T5 sequence (P52699 19-246, looked up, species assumed): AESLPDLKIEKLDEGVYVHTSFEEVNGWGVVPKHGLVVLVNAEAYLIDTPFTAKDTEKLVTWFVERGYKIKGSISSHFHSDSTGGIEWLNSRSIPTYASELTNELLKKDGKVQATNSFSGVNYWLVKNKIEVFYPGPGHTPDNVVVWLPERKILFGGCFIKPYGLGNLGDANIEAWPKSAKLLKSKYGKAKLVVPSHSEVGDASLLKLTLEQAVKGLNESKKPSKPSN
Protocol: as §1, §2

Row | SMILES | IC50 [2] [µM] | imipenem MIC, K. pneumoniae 7023 (bla VIM‑1 +) [8] [µg/mL] | imipenem MIC, A. baumannii AC-54/97 (bla IMP‑2 +) [9] [µg/mL] | imipenem MIC, K. pneumoniae VA-416/02 (bla VIM‑4 +) [10] [µg/mL] | imipenem MIC, S. marcescens SI-1591 (bla VIM‑2 +) [11] [µg/mL] | imipenem MIC, E. coli SI-M001 (bla NDM‑1 +) [12] [µg/mL] | imipenem MIC, E. coli SI–N003 (bla NDM‑7 +) [13] [µg/mL] | imipenem MIC, E. coli SI-G001 (bla NDM‑4 +) [14] [µg/mL] | inhibition at 50 µM [16] [%] | inhibition at 50 µM [18] [%] | inhibition at 50 µM [19] [%] | further results
1 | C[C@H](CS)C(=O)N1c2ccccc2C(C)(C)[C@H]1C(N)=O [6a, (S)-1-((S)-3-Mercapto-2-methylpropanoyl)-3,3-dimethylindoline-2-carboxamide] | 17.9 |  |  |  |  |  |  |  |  |  |  | chemical stability (in words) [1]: not very stable
2 | C[C@H](CS)C(=O)N1c2ccccc2C(C)(C)[C@@H]1C(N)=O [6b, (R)-1-((S)-3-Mercapto-2-methylpropanoyl)-3,3-dimethylindoline-2-carboxamide] | 4.1 |  |  |  |  |  |  |  |  |  |  | imipenem MIC, P. aeruginosa T2325 (bla IMP‑1 +) [3]: 64 ^c μg/mL; imipenem MIC, K. pneumoniae T2216 (bla VIM‑1 +) [4]: 4 ^c μg/mL; chemical stability (in words) [1]: lower chemical stability; imipenem MIC, K. pneumoniae T2301 (bla NDM‑1 +) [5]: 16 ^c μg/mL; IC50 [6]: 0.7 µM; IC50 [7]: 1.8 µM
3 | CCC1(CC)c2ccccc2N(C(=O)[C@H](C)CS)[C@@H]1C(N)=O [6c, (S)-3,3-Diethyl-1-((S)-3-mercapto-2-methylpropanoyl)indoline-2-carboxamide] | 8.4 | 128 | 128 | 128 | 8 | 64 | 64 | 64 | 81 | 96 | 66 | inhibition at 50 µM [15]: < 5%; Ki ([16]; competitive model, imipenem reporter substrate, read-out: K i NDM-1): 4.5 ± 0.7 µM; Ki [17]: 0.16 ± 0.01 µM; Ki ([19]; competitive model, imipenem reporter substrate, read-out: K i IMP-1): 4.9 ± 0.3 µM
4 | C[C@H](CS)C(=O)N1c2ccccc2C(C)(C)[C@H]1C(=O)NCC(=O)O [7a, ((S)-1-((S)-3-Mercapto-2-methylpropanoyl)-3,3-dimethylindoline-2-carbonyl)glycine] | 40 | 128 | 128 | 128 | 8 | 64 | 64 | 64 | 28 | 38 | ≤ 10 | 
5 | C[C@H](CS)C(=O)N1c2ccccc2C(C)(C)[C@@H]1C(=O)NCC(=O)O [7b, ((R)-1-((S)-3-Mercapto-2-methylpropanoyl)-3,3-dimethylindoline-2-carbonyl)glycine] | 8 | 128 | 128 | 128 | 16 | 64 | 64 | 64 | 74 | 58 | 13 | imipenem MIC, P. aeruginosa T2325 (bla IMP‑1 +) [3]: 32 ^c μg/mL; imipenem MIC, K. pneumoniae T2216 (bla VIM‑1 +) [4]: 4 ^c μg/mL; imipenem MIC, K. pneumoniae T2301 (bla NDM‑1 +) [5]: 8 ^c μg/mL; IC50 [6]: 7.4 µM; IC50 [7]: 8.6 µM
6 | CCC1(CC)c2ccccc2N(C(=O)[C@H](C)CS)[C@@H]1C(=O)NCC(=O)O [7c, ((S)-3,3-Diethyl-1-((S)-3-mercapto-2-methylpropanoyl)indoline-2-carbonyl)glycine] | 41 | 128 | 128 | 128 | 16 | 64 | 64 | 64 | 43 | 55 | 27 | 
7 | CCC1(CC)c2ccccc2N(C(=O)[C@H](C)CS)[C@H]1C(=O)NCC(=O)O [7d, ((R)-3,3-Diethyl-1-((S)-3-mercapto-2-methylpropanoyl)indoline-2-carbonyl)glycine] | 10 | 128 | 128 | 128 | 16 | 64 | 64 | 64 | 67 | 69 | 17 | 
8 | CCC1(CC)c2ccccc2N(C(=O)[C@H](C)CSC(C)=O)[C@H]1C(N)=O [(S,R′)-14b, ((S)-3-((R)-2-Carbamoyl-3,3-diethylindolin-1-yl)-2-methyl-3-oxopropyl)ethanethioate] |  | 64 | 128 | 128 | 8 | 32 | 64 | 64 | ≤ 10 | 15 | ≤ 10 | 
9 | CC(=O)SC[C@@H](C)C(=O)N1c2ccccc2C2(CCCCC2)[C@H]1C(N)=O [(S,S′)-14c, ((S)-3-((S)-2′-Carbamoylspiro[cyclohexane-1,3′-indolin]-1′-yl)-2-methyl-3-oxopropyl)ethanethioate] |  | 64 | 128 | 128 | 8 | 16 | 32 | 32 | ≤ 10 | 17 | ≤ 10 | 
10 | C[C@H](CS)C(=O)N1CCC[C@@H]1C(=O)O [D-captopril, reference compound] |  |  |  |  |  |  |  |  | 86 |  |  | 
11 | C[C@H](CS)C(=O)N1CCC[C@H]1C(=O)O [L-captopril, reference compound] |  |  |  |  |  |  |  |  | 76 |  |  | 
12 | C[C@@H](O)[C@H]1C(=O)N2C(C(=O)O)=C(SCCN=CN)C[C@H]12 [imipenem, reference compound] |  |  |  |  |  |  |  |  |  |  |  | MIC ([8]; Klebsiella pneumoniae, read-out: imipenem MIC, K. pneumoniae 7023 (bla VIM‑1 +)): 128 µg/mL (≈ 428 µM); MIC ([9]; Acinetobacter baumannii, read-out: imipenem MIC, A. baumannii AC-54/97 (bla IMP‑2 +)): 128 µg/mL (≈ 428 µM); MIC ([3]; Pseudomonas aeruginosa, read-out: imipenem MIC, P. aeruginosa T2325 (bla IMP‑1 +)): 64 µg/mL (≈ 214 µM); MIC ([10]; Klebsiella pneumoniae, read-out: imipenem MIC, K. pneumoniae VA-416/02 (bla VIM‑4 +)): 128 µg/mL (≈ 428 µM); MIC ([4]; Klebsiella pneumoniae, read-out: imipenem MIC, K. pneumoniae T2216 (bla VIM‑1 +)): 4 µg/mL (≈ 13.4 µM); MIC ([11]; Serratia marcescens, read-out: imipenem MIC, S. marcescens SI-1591 (bla VIM‑2 +)): 16 µg/mL (≈ 53.4 µM); MIC ([5]; Klebsiella pneumoniae, imipenem alone (compound: None)): 16 µg/mL (≈ 53.4 µM); MIC ([12]; Escherichia coli, imipenem alone (compound: None)): 64 µg/mL (≈ 214 µM)
